Measured values taken from PubChem BioAssay AID330 (DTP/NCI, 2004).
Values joined by “and” are separate entries in the source; they are usually repeats but may differ in a detail not shown here. Equal values may be shown once. Inconclusive results and toxic doses are left out.

Tested on: P388 leukemia ip, CD2F1 mice, survival T/C
Experiment: NCI In Vivo Anticancer Drug Screen. Data for tumor model P388 Leukemia (intraperitoneal) in CD2F1 (CDF1) mice
Conditions: endpoint: median survival time, higher = longer survival
Method in brief: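 Mice carrying the transplanted tumor received test compound or vehicle. Survival was recorded in each group, and the value is the treated-group measurement divided by that of the vehicle-treated control group.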

[1] = dose: 50.0 mg/kg/injection, schedule: Q01DX005 (ip), vehicle: Klucel (hydroxypropylcellulose) (HPC)
[2] = dose: 100.0 mg/kg/injection, schedule: Q01DX005 (ip), vehicle: Klucel (hydroxypropylcellulose) (HPC)
[3] = dose: 200.0 mg/kg/injection, schedule: Q01DX005 (ip), vehicle: Klucel (hydroxypropylcellulose) (HPC)
[4] = dose: 50.0 mg/kg/injection, schedule: Q01DX005 (ip), vehicle: saline with Tween-80
[5] = dose: 100.0 mg/kg/injection, schedule: Q01DX005 (ip), vehicle: saline with Tween-80
[6] = dose: 120.0 mg/kg/injection, schedule: Q01DX005 (ip), vehicle: saline with Tween-80
[7] = dose: 100.0 mg/kg/injection, schedule: Q04DX003 (ip), vehicle: saline with Tween-80
[8] = dose: 200.0 mg/kg/injection, schedule: Q04DX003 (ip), vehicle: saline with Tween-80
[9] = dose: 400.0 mg/kg/injection, schedule: Q04DX003 (ip), vehicle: saline with Tween-80
[10] = dose: 60.0 mg/kg/injection, schedule: Q01DX005 (ip), vehicle: Klucel (hydroxypropylcellulose) (HPC)
[11] = dose: 50.0 mg/kg/injection, schedule: Q01DX009 (ip), vehicle: saline
[12] = dose: 100.0 mg/kg/injection, schedule: Q01DX009 (ip), vehicle: saline
[13] = dose: 120.0 mg/kg/injection, schedule: Q01DX005 (ip), vehicle: Klucel (hydroxypropylcellulose) (HPC)
[14] = dose: 200.0 mg/kg/injection, schedule: Q01DX009 (ip), vehicle: saline
[15] = dose: 60.0 mg/kg/injection, schedule: Q01DX005 (ip), vehicle: saline with Tween-80

[N-]=[N+]=NP1(=O)OC(c2ccccc2)=CCN1c1ccccc1 (stereo not drawn)
T/C [1]: 105 % of control | T/C [2]: 103 % of control | T/C [3]: 100 % of control

O=C(NN1C(=O)CSC1c1ccc(Cl)cc1Cl)c1ccncc1 (stereo not drawn)
T/C (dose: 25.0 mg/kg/injection, schedule: Q01DX005 (ip), vehicle: saline with Tween-80): 101 % of control | T/C [4]: 98 % of control | T/C [5]: 93 % of control | T/C [6]: 100 % of control | T/C (dose: 240.0 mg/kg/injection, schedule: Q01DX005 (ip), vehicle: saline with Tween-80): 90 % of control

S=c1oc2cccc3c2n1CCC3
T/C [7]: 95 % of control | T/C [8]: 104 % of control | T/C [9]: 100 % of control

COc1ccc(C(NC(N)=O)c2cc3c(cc2OC(C)=O)OCO3)c(OC)c1 (stereo not drawn)
T/C (dose: 15.0 mg/kg/injection, schedule: Q01DX005 (ip), vehicle: Klucel (hydroxypropylcellulose) (HPC)): 91 % of control | T/C (dose: 30.0 mg/kg/injection, schedule: Q01DX005 (ip), vehicle: Klucel (hydroxypropylcellulose) (HPC)): 92 % of control | T/C [10]: 90 % of control and 91 % of control

Cc1ccc(C(=O)OC(CCN(C)C)c2ccccc2)cc1 (stereo not drawn)
T/C [11]: 109 % of control | T/C [12]: 106 % of control

CC(=O)OCCN1CCN(CCCN2c3ccccc3Sc3ccc(C(F)(F)F)cc32)CC1
T/C (dose: 100.0 mg/kg/injection, schedule: Q04DX002 (ip), vehicle: saline): 89 % of control and 90 % of control

Cc1nc2ncn(-c3ccccc3)c2c(=O)n1C
T/C [1]: 95 % of control | T/C [2]: 90 % of control | T/C [3]: 95 % of control

CC1(C(=O)O)C2C=CC3(CN(c4ccccc4)C(=O)C31c1ccccc1)O2 (stereo not drawn)
T/C [10]: 89 % of control | T/C [13]: 100 % of control | T/C (dose: 240.0 mg/kg/injection, schedule: Q01DX005 (ip), vehicle: Klucel (hydroxypropylcellulose) (HPC)): 102 % of control

COc1ccc(-c2cnc3c(N)nn(C)c3n2)cc1
T/C [7]: 90 % of control | T/C [8]: 100 % of control | T/C [9]: 105 % of control

CN1OC2(CCCCC2)n2c(=O)c3ccccc3c(=O)n2C1c1ccccc1 (stereo not drawn)
T/C [11]: 100 % of control | T/C [12]: 100 % of control | T/C [14]: 95 % of control

Cc1ccc(C(=O)C=C(C(F)(F)F)C(F)(F)F)cc1
T/C (dose: 6.25 mg/kg/injection, schedule: Q01DX009 (ip), vehicle: saline): 100 % of control | T/C (dose: 6.25 mg/kg/injection, schedule: Q04DX003 (ip), vehicle: saline): 95 % of control | T/C (dose: 12.5 mg/kg/injection, schedule: Q01DX009 (ip), vehicle: saline): 100 % of control | T/C (dose: 12.5 mg/kg/injection, schedule: Q04DX003 (ip), vehicle: saline): 95 % of control | T/C (dose: 25.0 mg/kg/injection, schedule: Q01DX009 (ip), vehicle: saline): 109 % of control | T/C (dose: 25.0 mg/kg/injection, schedule: Q04DX003 (ip), vehicle: saline): 104 % of control

CNC(=S)N/N=C\C(C)=N/Nc1ccc([N+](=O)[O-])cc1
T/C [11]: 94 % of control | T/C [12]: 93 % of control | T/C [14]: 87 % of control

COC(=O)C1CC(NO)CN1S(=O)(=O)c1ccc(C)cc1 (stereo not drawn)
T/C (dose: 100.0 mg/kg/injection, schedule: Q04DX002 (ip), vehicle: saline with Tween-80): 99 % of control | T/C (dose: 200.0 mg/kg/injection, schedule: Q04DX002 (ip), vehicle: saline with Tween-80): 95 % of control | T/C (dose: 400.0 mg/kg/injection, schedule: Q04DX002 (ip), vehicle: saline with Tween-80): 93 % of control

C=C(C)C(=O)OC1CC2(C)OC(=CC2=O)C(C)CC2OC(=O)C(=C)C12 (stereo not drawn)
T/C (dose: 25.0 mg/kg/injection, schedule: Q01DX001 (ip), vehicle: saline with Tween-80): 118 % of control | T/C (dose: 50.0 mg/kg/injection, schedule: Q01DX001 (ip), vehicle: saline with Tween-80): 116 % of control

CC1Cn2c(nc3sc4c(c3c2=O)CCCC4)S1 (stereo not drawn)
T/C (dose: 50.0 mg/kg/injection, schedule: Q01DX009 (ip), vehicle: Klucel (hydroxypropylcellulose) (HPC)): 104 % of control | T/C (dose: 100.0 mg/kg/injection, schedule: Q01DX009 (ip), vehicle: Klucel (hydroxypropylcellulose) (HPC)): 97 % of control | T/C (dose: 200.0 mg/kg/injection, schedule: Q01DX009 (ip), vehicle: Klucel (hydroxypropylcellulose) (HPC)): 106 % of control

C[S+](C)CCCl
T/C (dose: 50.0 mg/kg/injection, schedule: Q01DX005 (ip), vehicle: saline): 100 % of control | T/C (dose: 100.0 mg/kg/injection, schedule: Q01DX005 (ip), vehicle: saline): 107 % of control | T/C (dose: 200.0 mg/kg/injection, schedule: Q01DX005 (ip), vehicle: saline): 109 % of control

C/C(=N\N)c1nc2ccccc2[nH]1
T/C (dose: 15.0 mg/kg/injection, schedule: Q01DX005 (ip), vehicle: saline with Tween-80): 101 % of control | T/C (dose: 30.0 mg/kg/injection, schedule: Q01DX005 (ip), vehicle: saline with Tween-80): 101 % of control | T/C [10]: 100 % of control | T/C [15]: 108 % of control

CNC(=O)Nc1cc2ccccc2o1
T/C [7]: 110 % of control | T/C [8]: 100 % of control | T/C [9]: 105 % of control

COC1CCC2C(C1)C(C1CCCCC1)C1CCCCC1C2C1CCCCC1 (stereo not drawn)
T/C [4]: 96 % of control | T/C [5]: 93 % of control | T/C (dose: 200.0 mg/kg/injection, schedule: Q01DX005 (ip), vehicle: saline with Tween-80): 95 % of control

c1ccc2c(C3CCCN4CCCCC34)c[nH]c2c1 (stereo not drawn)
T/C (dose: 12.5 mg/kg/injection, schedule: Q04DX002 (ip), vehicle: saline with Tween-80): 105 % of control | T/C (dose: 25.0 mg/kg/injection, schedule: Q04DX002 (ip), vehicle: saline with Tween-80): 102 % of control | T/C (dose: 50.0 mg/kg/injection, schedule: Q04DX002 (ip), vehicle: saline with Tween-80): 100 % of control

CC(=O)O[C@@H]1[C@@H](O)C2=C3[C@]4(C)[C@@H]1C(C)(C)C(=O)C[C@@H]4[C@]3(O)[C@H](OC(C)=O)[C@@]1(C[C@@H]1C)C2=O
T/C (dose: 25.0 mg/kg/injection, schedule: Q01DX009 (ip), vehicle: other): 118 % of control | T/C (dose: 25.0 mg/kg/injection, schedule: Q01DX009 (ip), vehicle: saline with Tween-80): 115 % of control

Cc1cccc(C)c1NC(=O)CCC(=O)O
T/C [1]: 104 % of control | T/C [2]: 102 % of control | T/C [3]: 103 % of control

CCOC(=O)C1n2c(=O)n(-c3ccc(Cl)cc3)c(=O)n21
T/C [1]: 96 % of control | T/C [2]: 87 % of control | T/C [3]: 92 % of control

CC(=O)N(c1ccccc1)C1CCC2(C)C(=CCC3C2CCC2(C)C(C(C)CCCC(C)C)CCC32)C1 (stereo not drawn)
T/C (dose: 100.0 mg/kg/injection, schedule: Q04DX003 (sc), vehicle: steriod suspending solution): 100 % of control | T/C (dose: 200.0 mg/kg/injection, schedule: Q04DX003 (sc), vehicle: steriod suspending solution): 100 % of control | T/C (dose: 400.0 mg/kg/injection, schedule: Q04DX003 (sc), vehicle: steriod suspending solution): 104 % of control

CC1=CC(C)=NC(N)=NN1
T/C (dose: 25.0 mg/kg/injection, schedule: Q01DX009 (ip), vehicle: water): 99 % of control | T/C (dose: 50.0 mg/kg/injection, schedule: Q01DX009 (ip), vehicle: water): 108 % of control | T/C (dose: 100.0 mg/kg/injection, schedule: Q01DX009 (ip), vehicle: water): 103 % of control | T/C (dose: 200.0 mg/kg/injection, schedule: Q01DX009 (ip), vehicle: water): 119 % of control

CSc1ccc(N=C(N)N)cc1
T/C (dose: 50.0 mg/kg/injection, schedule: Q01DX009 (ip), vehicle: saline with Tween-80): 108 % of control | T/C (dose: 100.0 mg/kg/injection, schedule: Q01DX009 (ip), vehicle: saline with Tween-80): 110 % of control

COc1ccc(C2C3=C(CC(C)(C)CC3=O)Oc3cc4c(cc32)OCO4)cc1 (stereo not drawn)
T/C [15]: 93 % of control | T/C [6]: 96 % of control

CC1(C)SC(C)(c2ccco2)N(c2nccs2)C1=O (stereo not drawn)
T/C [10]: 104 % of control | T/C [13]: 104 % of control

CCN=C1C=C/C(=C(/c2ccc(NCC)c(C)c2)c2cc(O)c(S(=O)(=O)O)cc2S(=O)(=O)O)C=C1C
T/C (dose: 60.0 mg/kg/injection, schedule: Q01DX005 (ip), vehicle: saline): 107 % of control | T/C (dose: 120.0 mg/kg/injection, schedule: Q01DX005 (ip), vehicle: saline): 106 % of control | T/C (dose: 240.0 mg/kg/injection, schedule: Q01DX005 (ip), vehicle: saline): 102 % of control

O=[N+]([O-])c1ccccc1/C(=N\O)c1cccs1
T/C (dose: 100.0 mg/kg/injection, schedule: Q04DX002 (ip), vehicle: Klucel (hydroxypropylcellulose) (HPC)): 107 % of control | T/C (dose: 200.0 mg/kg/injection, schedule: Q04DX002 (ip), vehicle: Klucel (hydroxypropylcellulose) (HPC)): 100 % of control
